Article PMC11784013, “Potassium molybdate blocks APN-dependent coronavirus entry by degrading receptor via PIK3C3-mediated autophagy” (Journal of Virology, 2024)

Assays:
[1] = test system: autophagy markers P62 and LC3; assay: Autophagy markers P62 and LC3 in ST cells (western blot); format: cell-based, swine; conditions: PM 10 mM; for LC3 (LC3-Ⅱ) level, western blot, relative to WT without PM (=1) / P62 level, western blot, relative to WT without PM (=1): PRCV 0.1 MOI, 16 h
Description: Fig 6 PM degrades APN by autophagy-lysosome pathway. (A) ST cells were treated with PM (10 mM) and infected with TGEV (0.1 MOI) in the presence and absence of MG132 (20 µM), 3-MA (20 mM), and Z-VAD-FMK (20 µM) for 16 h. The APN expression and TGEV N were detected by western blot. (B) ST cells were treated with PM (10 mM) at 2, 4, 8, and 16 h, autophagy markers P62 and LC3, and APN were measured by western blot. (C) ST cells were transfected with RFP-EGFP-LC3B for 12 h and then treated with PM (10 mM) or H2O for 36 h. The fluorescence of GFP and RFP was detected by confocal microscopy, scale bar: 5 µm. (D) Quantification of autophagosomes (Merge) and autolysosomes (RFP) from C using Image J software. (E) ST cells were treated with PM or H2O for 24 h. The autophagosomes (yellow arrow) and autolysosomes (asterisk) were detected by transmission electron microscope, scale bar: 2 µm. (F) The number of autophagosomes (yellow arrow) and autolysosomes (asterisk) was quantified. All western blot results were calculated by Image J. Results are presented as mean ± SD of data from three independent experiments. ***, P ≤ 0.001.
Cotransfected cells were washed with cold PBS twice and lysed with NP40 lysis buffer (Beyotime, China, P0013F) supplemented with 1 mM PMSF (Beyotime, China, ST506) and phosphatase inhibitors (Beyotime, China, P1096). Lysis buffer containing cells was added to 20 µL of protein A+G agarose beads (Beyotime, China, P2055) and IgG (Santa Cruz, USA, 2025) on a rotating device for 4 h at 4°C to remove nonspecific proteins, after which the mixture was centrifuged at 2,500 rpm for 5 min. The supernatant was harvested, and anti-Flag/Myc/His/IgG antibodies were added to the samples on a rocking platform overnight at 4°C. Subsequently, 40 µL of protein A+G agarose beads were added to the supernatant containing the antibody, which was incubated for 4 h at 4°C on a rotating device. After washing with lysis buffer three times, the immunoprecipitates were collected by centrifugation, and the supernatant was discarded. Immunoprecipitated proteins were detected by western blotting. For the western blot, the proteins were separated by SDS‒PAGE and transferred onto a PVDF membrane (GE, USA, 10600023). The membranes were blocked in 5% nonfat milk at room temperature for 2 h and then incubated with specific primary antibodies overnight. Subsequently, the membrane was incubated with the secondary antibody for 1 h at room temperature. Finally, the proteins on the membranes were visualized with WesternBright ECL (Advansta, USA, K-12045-D50).
Fig. S8. PM inhibits PRCV infection by degrading APN via PIK3C3-mediated autophagy. (A-C) WT ST cells and PIK3C3 KO ST cells were treated with PM (10 mM) and infected with PRCV (0.1 MOI) for 16 h. Then the APN, PIK3C3, ATG14, BECN1, P62, PRCV N and LC3 were detected by western blot (A), and viral titers and PRCV N mRNA level were determined by TCID50 (B) and RT-qPCR (C) . (D-F) WT ST cells and PIK3C3 KO ST cells transfected with pCMV-Myc and pCMV-Myc-PIK3C3 respectively for 24 h were treated with PM (10 mM) and infected with PRCV (0.1 MOI) for 16 h. The APN, PIK3C3, P62, PRCV N and LC3 were determined by western blot (D). TCID50 (E) and RT-qPCR (F) were performed to detect viral titers and PRCV N m RNA level. All western blot results were calculated by Image J. Results are presented as mean ± SD of data from three independent experiments (also on this page, place not known: 6 8 10 12 Viral load(log copies/ul) *** 2 4 6 8 log10 TCID50/ml *** 6 8 10 12 + Viral load(log copies/ul) PIK3C3-Myc + - + + + *** *** 2 4 6 8 log10 TCID50/ml *** + + + + PIK3C3-Myc - - - + - + + + *** WT KO PM (C). WT KO PM PRCV PM - + + PRCV + + + WT PIK3C3 KO PIK3C3 PRCV PIK3C3-Myc - - - + PM - + + + PRCV + + + + WT PIK3C3 KO 0 0) […]

[2] = test system: BECN1; assay: BECN1 expression in ST cells (western blot); format: cell-based, porcine; conditions: Fig. S8A, PM 10 mM, PRCV 0.1 MOI, 16 h
Description: Fig 7 PM degrades APN expression via activating PIK3C3-mediated autophagy. (A) Graphical representation for autophagy and the targets of different autophagy inhibitors. (B) ST cells were treated with PM (10 mM) in the presence and absence of 3-MA (20 mM), SBI0206965 (20 µM), and 3BDO (30 µM) for 16 h, and the APN expression was detected by western blot. (C) ST cells were treated with PM (10 mM) in the presence and absence of 3-MA (20 mM) for 16 h, and the APN, PIK3C3, ATG14, BECN1, P62, and LC3 were measured by western blot. (D) ST cells were transfected with PIK3C3 siRNA-1, PIK3C3 siRNA-2, PIK3C3 siRNA-3, PIK3C3 siRNA-4, and NC siRNA for 24 h, the PIK3C3 expression was detected by western blot. […] The APN, PIK3C3, ATG14, BECN1, P62, and LC3 were detected by western blot. […] (G) PIK3C3 was detected by western blot in WT ST cells and PIK3C3 KO ST cells. (H) WT ST cells and PIK3C3 KO ST cells were treated with PM (10 mM) for 16 h and then the APN, PIK3C3, ATG14, BECN1, P62, and LC3 were detected by western blot. […] The APN, PIK3C3, P62, and LC3 were detected by western blot. All western blot results were calculated by Image J. All experiments were performed in triplicate.
Fig. S8. […] Then the APN, PIK3C3, ATG14, BECN1, P62, PRCV N and LC3 were detected by western blot (A), and viral titers and PRCV N mRNA level were determined by TCID50 (B) and RT-qPCR (C) . […]

[3] = Fig. S8D, PIK3C3 KO ST cells with PIK3C3-Myc
[4] = Fig. S8D, PIK3C3 KO ST cells without PIK3C3-Myc
[5] = Fig. S8D, WT ST cells with pCMV-Myc

Structure (SMILES): [K+].[K+].[O]=[Mo](=[O])([O-])[O-] [PM, potassium molybdate]
- LC3 (LC3-Ⅱ) level, western blot, relative to WT without PM (=1) ([1]; Fig. S8A, PIK3C3 KO ST cells): 0.95
- P62 level, western blot, relative to WT without PM (=1) ([1]; Fig. S8A, PIK3C3 KO ST cells): 0.83
- LC3 (LC3-Ⅱ) level, western blot, relative to WT without PM (=1) ([1]; Fig. S8A, WT ST cells): 3.42
- P62 level, western blot, relative to WT without PM (=1) ([1]; Fig. S8A, WT ST cells): 0.16
- LC3 (LC3-Ⅱ) level, western blot, relative to WT without PM (=1) [1, 3]: 3.45
- P62 level, western blot, relative to WT without PM (=1) [1, 3]: 0.27
- LC3 (LC3-Ⅱ) level, western blot, relative to WT without PM (=1) [1, 4]: 1.12
- P62 level, western blot, relative to WT without PM (=1) [1, 4]: 0.91
- LC3 (LC3-Ⅱ) level, western blot, relative to WT without PM (=1) [1, 5]: 3.61
- P62 level, western blot, relative to WT without PM (=1) [1, 5]: 0.26
- LC3-II generation from LC3-I ([1]; ST cells, 2-16 h, western blot): more of the autophagosome protein LC3-II was generated
- p62 level ([1]; ST cells, 2-16 h, western blot): p62 was consumed
- BECN1 level, western blot, relative to WT without PM (=1) ([2]; PIK3C3 KO ST cells): 0.95
- BECN1 level, western blot, relative to WT without PM (=1) ([2]; WT ST cells): 1.01
